Measured values as given in patent publication EP0603240B1, “SAFENING HERBICIDAL PYRAZOLYLSULFONYLUREAS” (priority 1991, dated 1993).

Columns and labels:
Experiment in all cases: Example 24, Procedure II: Herbicide No. 1 + co-herbicides Nos. 4, 6, 7, 12 with Antidote Nos. 15 and 17-21
Type in all cases: in vivo
[1] = tested on: velvetleaf (Abutilon theophrasti)
Protocol: (§1) Containers were filled and compacted with a fumigated silt loam top soil to a depth of about 1.3 cm from the top of the container. A first container was designated as an untreated control, a second container was designated as a herbicide control, and a third container was designated as a herbicide + antidote test container. Each of the containers was seeded with a crop species. A measured amount of herbicide dispersed or dissolved in acetone was applied to a measured quantity of soil. To this same quantity of soil treated with herbicide, there was added a measured amount of antidote dispersed or dissolved in acetone. The quantity of soil treated with the herbicide and antidote was thoroughly mixed to incorporate the herbicide and antidote in the soil uniformly. The seed bed in the third container of soil was covered with the soil treated with the herbicide and antidote and the container was leveled. For each test series, the seed beds of the first and second containers were likewise covered by soil layers. the cover layer of the first container was not treated with herbicide or antidote.
(§2) The containers were then placed on a bench in a greenhouse and sub-irrigated as required for the duration of the test. […] Plant response is measured in terms of percent injury. Antidote efficacy is indicated as the difference in plant injury by the herbicide(s) without the antidote and with the antidote.
(§3) This procedure is the same as Procedure I, but modified in the manner that after incorporation of the chemicals (herbicide and antidote) the containers with the covered seedbed were treated with an initial overhead irrigation equivalent to 0.6 cm rainfall, then subsequently sub-irrigated as required on greenhouse benches.
(§4) In other greenhouse tests, using Procedure II described above, the safening efficacy of Antidote Nos. 15 and 17-21 was evaluated against Herbicide No. 1 in corn in the presence of Giant foxtail (Setaria fabergi) and Velvetleaf (Abutilon theophrasti) as representative annual monocotyledonous and dicotyledonous weeds, respectively.
(§5) Test results are shown in Tables 23A and 23B wherein the indicated plant inhibition represents the average of duplicate replications, with observations being made thirteen (13) days after application of the chemicals. Giant foxtail and Velvetleaf are represented by the symbols "GFT" and "VL", respectively. The data in Table 23A show the test results using the antidotes at 2.24 kg/ha, whereas in Table 23B, the antidotal rate was reduced to 0.56 kg/ha.
(§6) The tests described in Example 23 were duplicated, but in this example a variety of co-herbicides were included to ascertain the efficacy of the antidotes against combinations of Herbicide No. 1 and Herbicides Nos. 4, 6, 7 and 12 as co-herbicides. Test results are shown in Table 24, wherein the antidote application rate was 2.24 kg/ha.

[2] = tested on: corn
Protocol: as §1, §2, §3, §4, §5, §6

[3] = tested on: Giant foxtail (Setaria fabergi)
Protocol: as §1, §2, §3, §4, §5, §6

[4] = Herb. No. 1 0.07 Kg/ha + Co-Herb. No. 4 1.12 Kg/ha + antidote 2.24 Kg/ha
[5] = Herb. No. 1 0.07 Kg/ha + Co-Herb. No. 6 0.14 Kg/ha + antidote 2.24 Kg/ha
[6] = Herb. No. 1 0.07 Kg/ha + Co-Herb. No. 7 0.28 Kg/ha + antidote 2.24 Kg/ha
[7] = Herb. No. 1 0.07 Kg/ha + Co-Herb. No. 12 0.28 Kg/ha + antidote 2.24 Kg/ha
[8] = Herb. No. 1 0.14 Kg/ha + Co-Herb. No. 4 1.12 Kg/ha + antidote 2.24 Kg/ha
[9] = Herb. No. 1 0.14 Kg/ha + Co-Herb. No. 6 0.14 Kg/ha + antidote 2.24 Kg/ha
[10] = Herb. No. 1 0.14 Kg/ha + Co-Herb. No. 7 0.28 Kg/ha + antidote 2.24 Kg/ha
[11] = Herb. No. 1 0.14 Kg/ha + Co-Herb. No. 12 0.28 Kg/ha + antidote 2.24 Kg/ha
[12] = Herb. No. 1 0.28 Kg/ha + Co-Herb. No. 4 1.12 Kg/ha + antidote 2.24 Kg/ha
[13] = Herb. No. 1 0.28 Kg/ha + Co-Herb. No. 6 0.14 Kg/ha + antidote 2.24 Kg/ha
[14] = Herb. No. 1 0.28 Kg/ha + Co-Herb. No. 7 0.28 Kg/ha + antidote 2.24 Kg/ha
[15] = Herb. No. 1 0.28 Kg/ha + Co-Herb. No. 12 0.28 Kg/ha + antidote 2.24 Kg/ha
[16] = Herb. No. 1 0.56 Kg/ha + Co-Herb. No. 4 1.12 Kg/ha + antidote 2.24 Kg/ha
[17] = Herb. No. 1 0.56 Kg/ha + Co-Herb. No. 6 0.14 Kg/ha + antidote 2.24 Kg/ha
[18] = Herb. No. 1 0.56 Kg/ha + Co-Herb. No. 7 0.28 Kg/ha + antidote 2.24 Kg/ha
[19] = Herb. No. 1 0.56 Kg/ha + Co-Herb. No. 12 0.28 Kg/ha + antidote 2.24 Kg/ha

SMILES: COC(=O)COC(c1ccccc1)c1ccccc1 [compound 20]
- % Inhibition VL [1, 4]: 90%
- % Inhibition VL [1, 5]: 95%
- % Inhibition VL [1, 6]: 95%
- % Inhibition VL [1, 7]: 90%
- % Inhibition VL [1, 8]: 90%
- % Inhibition VL [1, 9]: 90%
- % Inhibition VL [1, 10]: 90%
- % Inhibition VL [1, 11]: 95%
- % Inhibition VL [1, 12]: 90%
- % Inhibition VL [1, 13]: 98%
- % Inhibition VL [1, 14]: 95%
- % Inhibition VL [1, 15]: 98%
- % Inhibition VL [1, 16]: 95%
- % Inhibition VL [1, 17]: 95%
- % Inhibition VL [1, 18]: 95%
- % Inhibition VL [1, 19]: 98%
- % Inhibition Corn [2, 4]: 0%
- % Inhibition Corn [2, 5]: 0%
- % Inhibition Corn [2, 6]: 0%
- % Inhibition Corn [2, 7]: 0%
- % Inhibition Corn [2, 8]: 0%
- % Inhibition Corn [2, 9]: 5%
- % Inhibition Corn [2, 10]: 0%
- % Inhibition Corn [2, 11]: 5%
- % Inhibition Corn [2, 12]: 0%
- % Inhibition Corn [2, 13]: 5%
- % Inhibition Corn [2, 14]: 0%
- % Inhibition Corn [2, 15]: 5%
- % Inhibition Corn [2, 16]: 10%
- % Inhibition Corn [2, 17]: 20%
- % Inhibition Corn [2, 18]: 5%
- % Inhibition Corn [2, 19]: 10%
- % Inhibition GFT [3, 4]: 65%
- % Inhibition GFT [3, 5]: 100%
- % Inhibition GFT [3, 6]: 98%
- % Inhibition GFT [3, 7]: 99%
- % Inhibition GFT [3, 8]: 40%
- % Inhibition GFT [3, 9]: 99%
- % Inhibition GFT [3, 10]: 98%
- % Inhibition GFT [3, 11]: 100%
- % Inhibition GFT [3, 12]: 65%
- % Inhibition GFT [3, 13]: 100%
- % Inhibition GFT [3, 14]: 100%
- % Inhibition GFT [3, 15]: 100%
- % Inhibition GFT [3, 16]: 65%
- % Inhibition GFT [3, 17]: 100%
- % Inhibition GFT [3, 18]: 99%
- % Inhibition GFT [3, 19]: 100%

SMILES: CCSC(=O)COC(c1ccccc1)c1ccccc1 [compound 21]
- % Inhibition VL [1, 4]: 90%
- % Inhibition VL [1, 5]: 85%
- % Inhibition VL [1, 6]: 95%
- % Inhibition VL [1, 7]: 90%
- % Inhibition VL [1, 8]: 90%
- % Inhibition VL [1, 9]: 90%
- % Inhibition VL [1, 10]: 90%
- % Inhibition VL [1, 11]: 95%
- % Inhibition VL [1, 12]: 95%
- % Inhibition VL [1, 13]: 95%
- % Inhibition VL [1, 14]: 95%
- % Inhibition VL [1, 15]: 98%
- % Inhibition VL [1, 16]: 90%
- % Inhibition VL [1, 17]: 98%
- % Inhibition VL [1, 18]: 98%
- % Inhibition VL [1, 19]: 98%
- % Inhibition Corn [2, 4]: 5%
- % Inhibition Corn [2, 5]: 0%
- % Inhibition Corn [2, 6]: 0%
- % Inhibition Corn [2, 7]: 0%
- % Inhibition Corn [2, 8]: 5%
- % Inhibition Corn [2, 9]: 5%
- % Inhibition Corn [2, 10]: 0%
- % Inhibition Corn [2, 11]: 5%
- % Inhibition Corn [2, 12]: 0%
- % Inhibition Corn [2, 13]: 5%
- % Inhibition Corn [2, 14]: 5%
- % Inhibition Corn [2, 15]: 10%
- % Inhibition Corn [2, 16]: 5%
- % Inhibition Corn [2, 17]: 10%
- % Inhibition Corn [2, 18]: 15%
- % Inhibition Corn [2, 19]: 20%
- % Inhibition GFT [3, 4]: 65%
- % Inhibition GFT [3, 5]: 100%
- % Inhibition GFT [3, 6]: 100%
- % Inhibition GFT [3, 7]: 100%
- % Inhibition GFT [3, 8]: 60%
- % Inhibition GFT [3, 9]: 100%
- % Inhibition GFT [3, 10]: 100%
- % Inhibition GFT [3, 11]: 99%
- % Inhibition GFT [3, 12]: 65%
- % Inhibition GFT [3, 13]: 99%
- % Inhibition GFT [3, 14]: 98%
- % Inhibition GFT [3, 15]: 100%
- % Inhibition GFT [3, 16]: 70%
- % Inhibition GFT [3, 17]: 100%
- % Inhibition GFT [3, 18]: 100%
- % Inhibition GFT [3, 19]: 99%

SMILES: O=C(O)COC(c1ccccc1)c1ccccc1 [compound 19]
- % Inhibition VL [1, 4]: 90%
- % Inhibition VL [1, 5]: 90%
- % Inhibition VL [1, 6]: 90%
- % Inhibition VL [1, 7]: 85%
- % Inhibition VL [1, 8]: 95%
- % Inhibition VL [1, 9]: 95%
- % Inhibition VL [1, 10]: 90%
- % Inhibition VL [1, 11]: 85%
- % Inhibition VL [1, 12]: 95%
- % Inhibition VL [1, 13]: 95%
- % Inhibition VL [1, 14]: 95%
- % Inhibition VL [1, 15]: 95%
- % Inhibition VL [1, 16]: 90%
- % Inhibition VL [1, 17]: 99%
- % Inhibition VL [1, 18]: 98%
- % Inhibition VL [1, 19]: 99%
- % Inhibition Corn [2, 4]: 0%
- % Inhibition Corn [2, 5]: 0%
- % Inhibition Corn [2, 6]: 0%
- % Inhibition Corn [2, 7]: 0%
- % Inhibition Corn [2, 8]: 0%
- % Inhibition Corn [2, 9]: 0%
- % Inhibition Corn [2, 10]: 0%
- % Inhibition Corn [2, 11]: 0%
- % Inhibition Corn [2, 12]: 5%
- % Inhibition Corn [2, 13]: 5%
- % Inhibition Corn [2, 14]: 5%
- % Inhibition Corn [2, 15]: 5%
- % Inhibition Corn [2, 16]: 5%
- % Inhibition Corn [2, 17]: 10%
- % Inhibition Corn [2, 18]: 10%
- % Inhibition Corn [2, 19]: 20%
- % Inhibition GFT [3, 4]: 40%
- % Inhibition GFT [3, 5]: 100%
- % Inhibition GFT [3, 6]: 99%
- % Inhibition GFT [3, 7]: 99%
- % Inhibition GFT [3, 8]: 60%
- % Inhibition GFT [3, 9]: 100%
- % Inhibition GFT [3, 10]: 99%
- % Inhibition GFT [3, 11]: 99%
- % Inhibition GFT [3, 12]: 45%
- % Inhibition GFT [3, 13]: 99%
- % Inhibition GFT [3, 14]: 99%
- % Inhibition GFT [3, 15]: 100%
- % Inhibition GFT [3, 16]: 70%
- % Inhibition GFT [3, 17]: 99%
- % Inhibition GFT [3, 18]: 99%
- % Inhibition GFT [3, 19]: 99%

SMILES: O=C(O)COC(c1ccccc1)c1ccccc1 [compound 18]
- % Inhibition VL [1, 4]: 90%
- % Inhibition VL [1, 5]: 90%
- % Inhibition VL [1, 6]: 90%
- % Inhibition VL [1, 7]: 80%
- % Inhibition VL [1, 8]: 95%
- % Inhibition VL [1, 9]: 95%
- % Inhibition VL [1, 10]: 95%
- % Inhibition VL [1, 11]: 99%
- % Inhibition VL [1, 12]: 95%
- % Inhibition VL [1, 13]: 95%
- % Inhibition VL [1, 14]: 95%
- % Inhibition VL [1, 15]: 95%
- % Inhibition VL [1, 16]: 90%
- % Inhibition VL [1, 17]: 98%
- % Inhibition VL [1, 18]: 98%
- % Inhibition VL [1, 19]: 95%
- % Inhibition Corn [2, 4]: 5%
- % Inhibition Corn [2, 5]: 0%
- % Inhibition Corn [2, 6]: 0%
- % Inhibition Corn [2, 7]: 0%
- % Inhibition Corn [2, 8]: 5%
- % Inhibition Corn [2, 9]: 0%
- % Inhibition Corn [2, 10]: 10%
- % Inhibition Corn [2, 11]: 0%
- % Inhibition Corn [2, 12]: 5%
- % Inhibition Corn [2, 13]: 5%
- % Inhibition Corn [2, 14]: 5%
- % Inhibition Corn [2, 15]: 10%
- % Inhibition Corn [2, 16]: 10%
- % Inhibition Corn [2, 17]: 20%
- % Inhibition Corn [2, 18]: 10%
- % Inhibition Corn [2, 19]: 15%
- % Inhibition GFT [3, 4]: 65%
- % Inhibition GFT [3, 5]: 100%
- % Inhibition GFT [3, 6]: 99%
- % Inhibition GFT [3, 7]: 100%
- % Inhibition GFT [3, 8]: 55%
- % Inhibition GFT [3, 9]: 99%
- % Inhibition GFT [3, 10]: 99%
- % Inhibition GFT [3, 11]: 99%
- % Inhibition GFT [3, 12]: 70%
- % Inhibition GFT [3, 13]: 99%
- % Inhibition GFT [3, 14]: 100%
- % Inhibition GFT [3, 15]: 100%
- % Inhibition GFT [3, 16]: 65%
- % Inhibition GFT [3, 17]: 100%
- % Inhibition GFT [3, 18]: 100%
- % Inhibition GFT [3, 19]: 99%
